Source: ChEMBL document CHEMBL3991601, “The target landscape of clinical kinase drugs” (Science, 2017)
Activity calls are given as the source filed them. Cut-off read from the data, not from the text of the source, for most assays here: actives have a measured Kd and inactives only a lower limit.

Key:
[1] = molecular target: Protein-tyrosine kinase 6 (Homo sapiens, UniProt Q13882)
[2] = molecular target: Tyrosine-protein kinase Lck (Homo sapiens, UniProt P06239)
[3] = molecular target: T1, Ferrochelatase, mitochondrial (Homo sapiens, UniProt P22830)
T1 sequence (P22830 whole entry): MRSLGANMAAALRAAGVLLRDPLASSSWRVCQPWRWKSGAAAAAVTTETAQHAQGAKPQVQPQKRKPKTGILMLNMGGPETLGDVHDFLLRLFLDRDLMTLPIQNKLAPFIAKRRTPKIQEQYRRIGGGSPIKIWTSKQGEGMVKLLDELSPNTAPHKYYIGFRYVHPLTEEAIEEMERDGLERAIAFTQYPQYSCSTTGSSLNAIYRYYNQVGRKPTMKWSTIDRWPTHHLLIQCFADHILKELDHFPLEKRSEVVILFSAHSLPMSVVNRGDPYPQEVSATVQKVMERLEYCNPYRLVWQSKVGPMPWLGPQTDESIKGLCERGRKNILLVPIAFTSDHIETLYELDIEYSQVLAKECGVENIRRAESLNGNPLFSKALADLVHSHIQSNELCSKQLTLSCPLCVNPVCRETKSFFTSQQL

[4] = molecular target: Mitogen-activated protein kinase kinase kinase 1 (Homo sapiens, UniProt Q13233)
[5] = molecular target: T2, DNA replication licensing factor MCM4 (Homo sapiens, UniProt P33991)
T2 sequence (P33991 whole entry): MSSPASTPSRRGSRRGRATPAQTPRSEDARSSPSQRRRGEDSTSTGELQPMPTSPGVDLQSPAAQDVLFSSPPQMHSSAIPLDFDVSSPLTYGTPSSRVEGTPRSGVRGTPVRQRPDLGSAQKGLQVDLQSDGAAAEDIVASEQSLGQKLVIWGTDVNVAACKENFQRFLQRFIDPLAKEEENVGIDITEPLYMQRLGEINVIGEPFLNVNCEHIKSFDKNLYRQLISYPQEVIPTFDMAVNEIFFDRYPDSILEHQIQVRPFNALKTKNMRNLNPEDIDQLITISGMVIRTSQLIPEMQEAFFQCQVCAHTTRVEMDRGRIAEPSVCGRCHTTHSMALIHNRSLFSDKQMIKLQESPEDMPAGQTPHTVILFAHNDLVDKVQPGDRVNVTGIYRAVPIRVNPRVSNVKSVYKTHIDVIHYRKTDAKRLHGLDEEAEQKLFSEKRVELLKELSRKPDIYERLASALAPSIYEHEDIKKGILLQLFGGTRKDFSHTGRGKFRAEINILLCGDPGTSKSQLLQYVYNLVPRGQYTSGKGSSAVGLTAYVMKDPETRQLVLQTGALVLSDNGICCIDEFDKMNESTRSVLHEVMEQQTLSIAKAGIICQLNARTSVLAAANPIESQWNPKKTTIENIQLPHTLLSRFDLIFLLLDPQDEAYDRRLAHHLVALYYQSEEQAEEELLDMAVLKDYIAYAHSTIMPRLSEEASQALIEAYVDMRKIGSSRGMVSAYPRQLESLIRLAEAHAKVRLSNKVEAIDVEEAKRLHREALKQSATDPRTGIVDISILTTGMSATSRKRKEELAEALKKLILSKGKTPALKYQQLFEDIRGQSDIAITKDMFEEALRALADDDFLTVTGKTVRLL

[6] = molecular target: T3, Cyclin-G-associated kinase (Homo sapiens, UniProt O14976)
T3 sequence (O14976 whole entry): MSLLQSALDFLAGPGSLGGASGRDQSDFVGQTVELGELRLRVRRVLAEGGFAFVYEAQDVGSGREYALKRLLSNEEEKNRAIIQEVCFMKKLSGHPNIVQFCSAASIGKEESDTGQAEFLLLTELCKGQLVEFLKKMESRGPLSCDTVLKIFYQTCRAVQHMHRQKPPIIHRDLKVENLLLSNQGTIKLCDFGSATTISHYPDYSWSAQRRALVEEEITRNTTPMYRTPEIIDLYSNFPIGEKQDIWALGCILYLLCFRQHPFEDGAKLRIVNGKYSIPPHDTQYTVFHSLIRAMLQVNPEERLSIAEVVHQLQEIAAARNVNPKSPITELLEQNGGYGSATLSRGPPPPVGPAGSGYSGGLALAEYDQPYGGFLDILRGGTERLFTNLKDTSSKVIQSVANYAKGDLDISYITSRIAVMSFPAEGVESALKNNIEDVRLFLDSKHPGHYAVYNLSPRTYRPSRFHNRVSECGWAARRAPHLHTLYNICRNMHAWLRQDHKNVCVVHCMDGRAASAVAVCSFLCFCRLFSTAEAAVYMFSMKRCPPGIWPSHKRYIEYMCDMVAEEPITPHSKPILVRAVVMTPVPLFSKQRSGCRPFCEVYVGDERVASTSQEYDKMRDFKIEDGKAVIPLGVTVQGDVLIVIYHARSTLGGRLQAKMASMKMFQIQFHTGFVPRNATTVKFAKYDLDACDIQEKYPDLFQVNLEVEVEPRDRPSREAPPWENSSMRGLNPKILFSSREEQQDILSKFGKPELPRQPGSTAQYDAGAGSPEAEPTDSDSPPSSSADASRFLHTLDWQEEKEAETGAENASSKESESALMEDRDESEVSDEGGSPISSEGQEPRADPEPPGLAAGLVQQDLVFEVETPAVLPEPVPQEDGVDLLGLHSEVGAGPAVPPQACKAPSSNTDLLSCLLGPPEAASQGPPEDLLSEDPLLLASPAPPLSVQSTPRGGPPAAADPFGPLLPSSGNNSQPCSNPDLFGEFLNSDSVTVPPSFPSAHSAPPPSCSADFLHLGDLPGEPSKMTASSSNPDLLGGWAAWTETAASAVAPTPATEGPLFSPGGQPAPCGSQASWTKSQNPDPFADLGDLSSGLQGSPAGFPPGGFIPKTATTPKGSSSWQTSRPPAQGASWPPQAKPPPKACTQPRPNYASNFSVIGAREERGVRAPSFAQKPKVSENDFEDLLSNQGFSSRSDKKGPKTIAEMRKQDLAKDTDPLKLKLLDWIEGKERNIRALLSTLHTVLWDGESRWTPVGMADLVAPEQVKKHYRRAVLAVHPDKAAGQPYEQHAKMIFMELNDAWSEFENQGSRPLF

[7] = molecular target: Hepatocyte growth factor receptor (Homo sapiens, UniProt P08581)
Note: in the data inactive means no Kd found up to 30 µM.

Chain of Hepatocyte growth factor receptor (P08581 whole entry): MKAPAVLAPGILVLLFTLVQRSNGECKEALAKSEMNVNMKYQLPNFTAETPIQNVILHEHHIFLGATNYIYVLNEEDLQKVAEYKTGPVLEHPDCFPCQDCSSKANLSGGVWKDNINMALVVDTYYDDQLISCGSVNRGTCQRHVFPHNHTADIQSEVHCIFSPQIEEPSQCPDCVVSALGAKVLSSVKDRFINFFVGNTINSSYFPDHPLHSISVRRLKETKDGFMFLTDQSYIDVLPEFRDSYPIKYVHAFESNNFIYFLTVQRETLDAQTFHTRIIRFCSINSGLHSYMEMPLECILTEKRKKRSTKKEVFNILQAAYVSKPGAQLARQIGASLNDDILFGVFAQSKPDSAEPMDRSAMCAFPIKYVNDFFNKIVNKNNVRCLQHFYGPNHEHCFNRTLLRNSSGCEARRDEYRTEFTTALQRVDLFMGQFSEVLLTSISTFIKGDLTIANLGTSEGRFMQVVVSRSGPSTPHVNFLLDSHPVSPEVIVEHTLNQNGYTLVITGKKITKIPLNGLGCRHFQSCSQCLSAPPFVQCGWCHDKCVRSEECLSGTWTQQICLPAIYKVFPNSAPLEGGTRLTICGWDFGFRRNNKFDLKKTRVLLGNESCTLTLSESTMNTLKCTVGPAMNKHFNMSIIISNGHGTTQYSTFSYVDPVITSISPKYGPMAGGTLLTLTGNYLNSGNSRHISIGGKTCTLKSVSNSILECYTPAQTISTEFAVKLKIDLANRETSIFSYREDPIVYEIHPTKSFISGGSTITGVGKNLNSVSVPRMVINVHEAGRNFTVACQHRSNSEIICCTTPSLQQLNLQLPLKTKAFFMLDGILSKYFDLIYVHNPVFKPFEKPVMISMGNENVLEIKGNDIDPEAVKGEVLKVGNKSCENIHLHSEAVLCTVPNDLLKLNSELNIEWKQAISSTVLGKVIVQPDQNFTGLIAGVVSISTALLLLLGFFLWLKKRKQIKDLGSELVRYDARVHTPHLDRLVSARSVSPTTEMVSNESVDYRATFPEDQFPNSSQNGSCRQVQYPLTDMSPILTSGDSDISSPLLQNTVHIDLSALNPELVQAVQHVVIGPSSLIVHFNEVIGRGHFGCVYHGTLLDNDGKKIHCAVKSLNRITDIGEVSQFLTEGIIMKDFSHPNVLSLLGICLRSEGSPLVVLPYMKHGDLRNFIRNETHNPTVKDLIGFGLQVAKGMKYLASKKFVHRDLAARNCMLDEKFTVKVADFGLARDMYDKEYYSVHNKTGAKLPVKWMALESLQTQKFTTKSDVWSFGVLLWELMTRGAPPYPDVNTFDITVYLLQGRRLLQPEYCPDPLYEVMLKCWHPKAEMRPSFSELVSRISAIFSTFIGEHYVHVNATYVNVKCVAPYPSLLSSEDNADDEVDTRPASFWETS
Chain of Mitogen-activated protein kinase kinase kinase 1 (Q13233 whole entry): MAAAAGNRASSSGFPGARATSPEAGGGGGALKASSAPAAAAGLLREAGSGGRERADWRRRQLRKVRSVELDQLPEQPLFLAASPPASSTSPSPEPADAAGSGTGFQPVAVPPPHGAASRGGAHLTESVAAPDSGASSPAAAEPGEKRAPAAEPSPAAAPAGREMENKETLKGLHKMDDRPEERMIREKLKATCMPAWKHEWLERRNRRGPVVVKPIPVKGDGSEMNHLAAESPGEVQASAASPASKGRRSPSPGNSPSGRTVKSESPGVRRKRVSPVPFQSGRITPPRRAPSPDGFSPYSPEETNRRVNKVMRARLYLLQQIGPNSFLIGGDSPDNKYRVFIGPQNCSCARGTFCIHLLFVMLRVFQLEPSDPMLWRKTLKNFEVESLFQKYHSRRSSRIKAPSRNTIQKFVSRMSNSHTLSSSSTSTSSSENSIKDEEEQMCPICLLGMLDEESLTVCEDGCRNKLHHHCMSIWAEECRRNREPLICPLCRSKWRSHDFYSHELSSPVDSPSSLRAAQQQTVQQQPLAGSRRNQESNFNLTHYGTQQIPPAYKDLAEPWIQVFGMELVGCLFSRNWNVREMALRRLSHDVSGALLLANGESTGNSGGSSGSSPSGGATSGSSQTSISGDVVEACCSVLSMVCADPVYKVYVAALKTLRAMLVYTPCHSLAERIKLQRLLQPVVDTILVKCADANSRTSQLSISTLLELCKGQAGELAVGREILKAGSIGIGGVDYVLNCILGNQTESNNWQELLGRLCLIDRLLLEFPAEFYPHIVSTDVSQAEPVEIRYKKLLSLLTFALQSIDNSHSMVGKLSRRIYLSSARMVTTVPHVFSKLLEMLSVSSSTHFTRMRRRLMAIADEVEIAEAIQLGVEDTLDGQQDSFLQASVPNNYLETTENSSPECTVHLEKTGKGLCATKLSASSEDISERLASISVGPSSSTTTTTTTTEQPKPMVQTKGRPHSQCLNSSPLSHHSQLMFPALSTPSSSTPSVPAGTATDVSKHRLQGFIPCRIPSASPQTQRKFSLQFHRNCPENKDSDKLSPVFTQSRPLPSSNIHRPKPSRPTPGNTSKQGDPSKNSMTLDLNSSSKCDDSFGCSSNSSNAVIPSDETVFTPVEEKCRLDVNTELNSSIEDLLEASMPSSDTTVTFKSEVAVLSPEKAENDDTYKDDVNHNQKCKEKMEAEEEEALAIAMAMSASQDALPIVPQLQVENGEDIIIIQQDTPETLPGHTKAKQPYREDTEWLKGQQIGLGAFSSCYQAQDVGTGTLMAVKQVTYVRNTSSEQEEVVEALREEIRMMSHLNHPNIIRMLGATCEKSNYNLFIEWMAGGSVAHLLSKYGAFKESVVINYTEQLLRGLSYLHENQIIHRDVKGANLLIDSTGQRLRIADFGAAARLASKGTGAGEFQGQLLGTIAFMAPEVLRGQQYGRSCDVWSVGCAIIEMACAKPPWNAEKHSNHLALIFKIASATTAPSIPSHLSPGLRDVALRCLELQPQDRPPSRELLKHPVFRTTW
Chain of Protein-tyrosine kinase 6 (Q13882 whole entry): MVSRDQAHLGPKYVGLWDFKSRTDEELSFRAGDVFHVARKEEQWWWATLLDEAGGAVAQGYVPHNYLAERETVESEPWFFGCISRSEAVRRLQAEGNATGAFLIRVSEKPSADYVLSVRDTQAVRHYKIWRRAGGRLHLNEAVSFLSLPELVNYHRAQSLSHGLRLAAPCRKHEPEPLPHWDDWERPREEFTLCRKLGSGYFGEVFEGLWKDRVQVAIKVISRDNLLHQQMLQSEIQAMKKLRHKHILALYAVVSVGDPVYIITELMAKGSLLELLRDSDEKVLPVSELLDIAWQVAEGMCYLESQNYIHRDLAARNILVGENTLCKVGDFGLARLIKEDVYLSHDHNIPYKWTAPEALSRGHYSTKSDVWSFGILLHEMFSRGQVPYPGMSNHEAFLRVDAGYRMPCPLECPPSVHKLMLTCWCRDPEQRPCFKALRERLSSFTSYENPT
Chain of Tyrosine-protein kinase Lck (P06239 whole entry): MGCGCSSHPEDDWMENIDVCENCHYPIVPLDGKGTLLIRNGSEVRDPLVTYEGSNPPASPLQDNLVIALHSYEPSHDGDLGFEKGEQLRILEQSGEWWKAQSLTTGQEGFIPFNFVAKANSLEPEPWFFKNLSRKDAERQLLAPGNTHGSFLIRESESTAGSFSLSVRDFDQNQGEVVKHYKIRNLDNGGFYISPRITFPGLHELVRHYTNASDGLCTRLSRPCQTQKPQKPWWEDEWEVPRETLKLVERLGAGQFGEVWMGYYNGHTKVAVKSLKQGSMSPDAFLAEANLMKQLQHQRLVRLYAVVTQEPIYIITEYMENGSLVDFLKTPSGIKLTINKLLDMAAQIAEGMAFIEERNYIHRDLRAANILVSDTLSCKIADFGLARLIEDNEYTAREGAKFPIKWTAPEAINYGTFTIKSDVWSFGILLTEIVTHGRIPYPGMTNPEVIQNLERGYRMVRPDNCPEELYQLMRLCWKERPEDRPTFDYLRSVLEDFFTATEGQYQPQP

Row | Kd [1] | Kd [2] | Kd [3] | Kd [4] | Kd [5] | Kd [6] | Kd [7] | SMILES
1 | – | > 30 µM (inactive) | > 30 µM (inactive) | > 30 µM (inactive) | 0.629 µM | > 30 µM (inactive) | – | COc1cc(Nc2ncc3c(n2)-c2ccc(Cl)cc2C(c2c(F)cccc2OC)=NC3)ccc1C(=O)O [ALISERTIB]
2 | 0.188 µM (active) | 0.89 µM (active) | > 30 µM (inactive) | – | > 30 µM (inactive) | – | – | O=C(Nc1c[nH]nc1-c1nc2cc(CN3CCOCC3)ccc2[nH]1)NC1CC1 [AT-9283]
3 | > 30 µM (inactive) | – | > 30 µM (inactive) | > 30 µM (inactive) | > 30 µM (inactive) | > 30 µM (inactive) | > 30 µM (inactive) | COc1cc2ncnc(Oc3cccc(NC(=O)Nc4cc(C(C)(C)C(F)(F)F)on4)c3)c2cc1OC [CEP-32496]
4 | – | – | > 30 µM (inactive) | – | > 30 µM (inactive) | – | – | C[C@@H](Oc1cc(-n2cnc3ccc(CN4CCN(C)CC4)cc32)sc1C(N)=O)c1ccccc1C(F)(F)F [GSK-461364]
5 | > 30 µM (inactive) | – | > 30 µM (inactive) | > 30 µM (inactive) | > 30 µM (inactive) | 0.003 µM (active) | – | CNC(=O)c1nn(C)c2c1C(C)(C)Cc1cnc(Nc3ccc(N4CCN(C)CC4)cc3)nc1-2 [MILCICLIB]
6 | – | – | > 30 µM (inactive) | 0.135 µM (active) | > 30 µM (inactive) | > 30 µM (inactive) | – | NC(=O)c1c(OCc2c(F)cc(Br)cc2F)nsc1NC(=O)NCCCCN1CCCC1 [OSI-632]
7 | – | – | > 30 µM (inactive) | 2.18 µM | > 30 µM (inactive) | 1.76 µM (active) | – | CC(=O)NCC(=O)N1[C@@H]2CC[C@H]1c1ccc(Nc3ncc(C(F)(F)F)c(NC4CCC4)n3)cc12 [PF-03814735]
8 | – | – | > 30 µM (inactive) | – | > 30 µM (inactive) | – | – | O=C(NOCCO)c1cc(CN2OCCCC2=O)c(F)c(F)c1Nc1ccc(I)cc1F [RO-4987655]

More lines, now with the values behind:

Row | SMILES | Kd [1] | Kd [2] | Kd [3] | Kd [4] | Kd [5] | Kd [6] | Kd [7]
9 | CC(=O)c1cnc2ccc(-c3cc(Cl)c(O)c(Cl)c3)nc2c1N[C@H]1CC[C@H](CN(C)C)CC1 | > 30 µM (inactive) | 0.073 µM (active) | 1.09 µM (active) | > 30 µM (inactive) | > 30 µM (inactive) | 0.005 µM (active) | > 30 µM (inactive)
10 | CNC(=O)c1ccccc1Sc1ccc2c(/C=C/c3ccccn3)n[nH]c2c1 [AXITINIB] | – | – | 6.84 µM (active) | – | > 30 µM (inactive) | – | –
11 | Cc1cc(C(=O)NOCCO)c(Nc2ccc(I)cc2F)n(C)c1=O [AZD-8330] | > 30 µM (inactive) | > 30 µM (inactive) | > 30 µM (inactive) | > 30 µM (inactive) | > 30 µM (inactive) | > 30 µM (inactive) | –
12 | CC(C)(C)c1nc(-c2cccc(NS(=O)(=O)c3c(F)cccc3F)c2F)c(-c2ccnc(N)n2)s1 [DABRAFENIB] | 1.41 µM (active) | 0.783 µM (active) | > 30 µM (inactive) | > 30 µM (inactive) | > 30 µM (inactive) | > 30 µM (inactive) | –
13 | Cn1cc(C2=C(c3cn(C4CCN(Cc5ccccn5)CC4)c4ccccc34)C(=O)NC2=O)c2ccccc21 [ENZASTAURIN] | – | – | > 30 µM (inactive) | – | > 30 µM (inactive) | – | –
14 | CCn1cc(-c2ccnc3[nH]c(-c4cccc(CN(C)C)c4)cc23)c(-c2ccc(NC(=O)N(C)C)cc2)n1 [GSK-1070916] | 8.19 µM (active) | > 30 µM (inactive) | 2.41 µM (active) | > 30 µM (inactive) | > 30 µM (inactive) | – | > 30 µM (inactive)
15 | COc1ccc(S(=O)(=O)N(C(C)=O)c2ccccc2/C=C/c2cc[n+]([O-])cc2)cc1 [HMN-214] | > 30 µM (inactive) | > 30 µM (inactive) | > 30 µM (inactive) | > 30 µM (inactive) | – | > 30 µM (inactive) | 1.39 µM
16 | Cn1cc(-c2cnc3ccc4ccc(CS(=O)(=O)NCc5ccccn5)cc4c(=O)c3c2)cn1 [MK-8033] | > 30 µM (inactive) | > 30 µM (inactive) | 32.6 µM (active) | > 30 µM (inactive) | > 30 µM (inactive) | > 30 µM (inactive) | –
17 | COc1ncc(-c2ccc3nccc(-c4ccnnc4)c3c2)cc1NS(=O)(=O)c1ccc(F)cc1F [OMIPALISIB] | > 30 µM (inactive) | > 30 µM (inactive) | > 30 µM (inactive) | > 30 µM (inactive) | > 30 µM (inactive) | > 30 µM (inactive) | –
18 | Cc1[nH]c(/C=C2\C(=O)Nc3ccccc32)c(C)c1CCC(=O)O [ORANTINIB] | – | – | > 30 µM (inactive) | > 30 µM (inactive) | > 30 µM (inactive) | 2.09 µM (active) | –
19 | CCOc1cc2ncc(C#N)c(Nc3ccc(F)c(Cl)c3)c2cc1NC(=O)/C=C/CN(C)C [PELITINIB] | > 30 µM (inactive) | – | 10.5 µM (active) | 0.097 µM (active) | > 30 µM (inactive) | 0.117 µM (active) | –
20 | CCCCCCCCCCCCCCCCCCOP(=O)([O-])OC1CC[N+](C)(C)CC1 [PERIFOSINE] | > 30 µM (inactive) | > 30 µM (inactive) | > 30 µM (inactive) | > 30 µM (inactive) | > 30 µM (inactive) | > 30 µM (inactive) | –
21 | CNC(=O)c1cc(Oc2ccc(NC(=O)Nc3cc(C(C)(C)C)nn3-c3ccc4ncccc4c3)c(F)c2)ccn1 [REBASTINIB] | – | – | > 30 µM (inactive) | > 30 µM (inactive) | – | > 30 µM (inactive) | 0.126 µM (active)
22 | N#CC[C@H](C1CCCC1)n1cc(-c2ncnc3[nH]ccc23)cn1 [RUXOLITINIB] | – | – | > 30 µM (inactive) | – | > 30 µM (inactive) | – | –
23 | CN1CCN(CCOc2cc(OC3CCOCC3)c3c(Nc4c(Cl)ccc5c4OCO5)ncnc3c2)CC1 [SARACATINIB] | 0.566 µM | – | > 30 µM (inactive) | > 30 µM (inactive) | > 30 µM (inactive) | – | > 30 µM (inactive)
24 | Cn1ncc(Cl)c1-c1cc(C(=O)N[C@H](CN)Cc2ccc(F)c(F)c2)oc1Cl [UPROSERTIB] | > 30 µM (inactive) | > 30 µM (inactive) | > 30 µM (inactive) | > 30 µM (inactive) | – | > 30 µM (inactive) | > 30 µM (inactive)
